Laboratory results as given in ChEMBL document CHEMBL1201862, “PubChem BioAssay data set” (2004).
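How tested: cells in 96-well plates exposed to compound for 48 hours at five concentrations. GI50 marks 50% less growth.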 Active and inactive are the calls of the source. Rule as the data show it: active = GI50 up to about 1.1 µM and inactive = higher.

What was measured:
Experiment in all cases: inhibition of tumour cell growth, NCI panel, 48 h
SNB-78 = test system: SNB-78
RPMI-8226 = test system: RPMI-8226
IGROV-1 = test system: IGROV-1
SN12C = test system: SN12C
COLO 205 = test system: COLO 205
SW-620 = test system: SW-620
DMS-114 = test system: DMS-114
CAKI-1 = test system: CAKI-1
ACHN = test system: ACHN
HCT-116 = test system: HCT-116
SF-539 = test system: SF-539
U-251 = test system: U-251
UO-31 = test system: UO-31
OVCAR-5 = test system: OVCAR-5
HT-29 = test system: HT-29
NCI-H226 = test system: NCI-H226
LOX IMVI = test system: LOX IMVI
HCT-15 = test system: HCT-15
A498 = test system: A498
SF-295 = test system: SF-295
UACC-257 = test system: UACC-257
HOP-62 = test system: HOP-62
SF-268 = test system: SF-268
M14 = test system: M14
HOP-18 = test system: HOP-18
A549 = test system: A549
SK-MEL-28 = test system: SK-MEL-28
SK-OV-3 = test system: SK-OV-3
LXFL 529 = test system: LXFL 529
786-0 = test system: 786-0
KM-20L2 = test system: KM-20L2
OVCAR-3 = test system: OVCAR-3
TK-10 = test system: TK-10
K562 = test system: K562
NCI-H460 = test system: NCI-H460
CCRF-CEM = test system: CCRF-CEM
NCI-H23 = test system: NCI-H23
SR = test system: SR
OVCAR-8 = test system: OVCAR-8
RXF 393 = test system: RXF 393
HCC 2998 = test system: HCC 2998
RXF 631 = test system: RXF 631
DLD-1 = test system: DLD-1
KM12 = test system: KM12
M19-MEL = test system: M19-MEL
Malme-3M = test system: Malme-3M
NCI-H522 = test system: NCI-H522
UACC-62 = test system: UACC-62
SNB-75 = test system: SNB-75
HOP-92 = test system: HOP-92
SNB-19 = test system: SNB-19
EKVX = test system: EKVX
OVCAR-4 = test system: OVCAR-4
HL-60 = test system: HL-60
XF498 = test system: XF498
SK-MEL-2 = test system: SK-MEL-2
SK-MEL-5 = test system: SK-MEL-5
MOLT-4 = test system: MOLT-4
DMS-273 = test system: DMS-273

With `COc1cccc2nc3c(C(=O)NCCN(C)C)cccc3nc12` as the compound, how does the GI50 (SNB-78) read?
The GI50 was 12.9 µM (inactive).

What about the GI50 (RPMI-8226) of the same compound?
The GI50 was 6.49 µM (inactive).

What about the GI50 (IGROV-1) of the same compound?
The GI50 was 16.1 µM (inactive).

And the GI50 (SN12C)?
The GI50 was 9.2 µM (inactive).

And the GI50 (COLO 205)?
The GI50 was 5.2 µM (inactive).

And the GI50 (SW-620)?
The GI50 was 5.42 µM (inactive).

And the GI50 (DMS-114)?
The GI50 was 8.07 µM (inactive).

What about the GI50 (CAKI-1) of the same compound?
Its GI50 is 17.1 µM (inactive).

And the GI50 (ACHN)?
The GI50 was 4.3 µM (inactive).

And the GI50 (HCT-116)?
The GI50 was 3.79 µM (inactive).

And the GI50 (SF-539)?
Its GI50 is 4.27 µM (inactive).

And the GI50 (U-251)?
The GI50 was 12.6 µM (inactive).

What about the GI50 (UO-31) of the same compound?
The GI50 was 12.2 µM (inactive).

What about the GI50 (OVCAR-5) of the same compound?
Its GI50 is 15.9 µM (inactive).

And the GI50 (HT-29)?
Its GI50 is 4.63 µM (inactive).

And the GI50 (NCI-H226)?
The GI50 was 5.27 µM (inactive).

What about the GI50 (LOX IMVI) of the same compound?
The GI50 was 4.2 µM (inactive).

What about the GI50 (HCT-15) of the same compound?
Its GI50 is 7 µM.

And the GI50 (A498)?
Its GI50 is 9.27 µM (inactive).

And the GI50 (SF-295)?
Its GI50 is 10.1 µM (inactive).

And the GI50 (UACC-257)?
The GI50 was 6.03 µM (inactive).

What about the GI50 (HOP-62) of the same compound?
Its GI50 is 11.4 µM (inactive).

What about the GI50 (SF-268) of the same compound?
The GI50 was 0.713 µM (active).

What about the GI50 (M14) of the same compound?
The GI50 was 13.4 µM (inactive).

What about the GI50 (HOP-18) of the same compound?
Its GI50 is 29.5 µM (inactive).

What about the GI50 (A549) of the same compound?
Its GI50 is 7.35 µM (inactive).

And the GI50 (SK-MEL-28)?
The GI50 was 13.8 µM (inactive).

What about the GI50 (SK-OV-3) of the same compound?
The GI50 was 25.1 µM (inactive).

And the GI50 (LXFL 529)?
The GI50 was 11.1 µM (inactive).

What about the GI50 (786-0) of the same compound?
Its GI50 is 10.6 µM (inactive).

And the GI50 (KM-20L2)?
Its GI50 is 8.38 µM (inactive).

What about the GI50 (OVCAR-3) of the same compound?
The GI50 was 18.1 µM (inactive).

And the GI50 (TK-10)?
The GI50 was 11 µM (inactive).

What about the GI50 (K562) of the same compound?
Its GI50 is 3.76 µM (inactive).

What about the GI50 (NCI-H460) of the same compound?
Its GI50 is 3.78 µM (inactive).

And the GI50 (CCRF-CEM)?
Its GI50 is 5.35 µM (inactive).

And the GI50 (NCI-H23)?
Its GI50 is 11.8 µM (inactive).

What about the GI50 (SR) of the same compound?
Its GI50 is 3.38 µM (inactive).

What about the GI50 (OVCAR-8) of the same compound?
The GI50 was 9.12 µM (inactive).

And the GI50 (RXF 393)?
Its GI50 is 11.6 µM (inactive).

And the GI50 (HCC 2998)?
Its GI50 is 10.8 µM (inactive).

What about the GI50 (RXF 631) of the same compound?
Its GI50 is 10.8 µM (inactive).

And the GI50 (DLD-1)?
Its GI50 is 5.68 µM (inactive).

What about the GI50 (KM12) of the same compound?
Its GI50 is 7.19 µM (inactive).

And the GI50 (M19-MEL)?
The GI50 was 8.07 µM (inactive).

What about the GI50 (Malme-3M) of the same compound?
Its GI50 is 7.96 µM (inactive).

And the GI50 (NCI-H522)?
The GI50 was 11.9 µM (inactive).

And the GI50 (UACC-62)?
The GI50 was 12.6 µM (inactive).

What about the GI50 (SNB-75) of the same compound?
The GI50 was 12.4 µM (inactive).

What about the GI50 (HOP-92) of the same compound?
Its GI50 is 6.17 µM (inactive).

And the GI50 (SNB-19)?
The GI50 was 17.4 µM (inactive).

And the GI50 (EKVX)?
The GI50 was 12.6 µM (inactive).

And the GI50 (OVCAR-4)?
The GI50 was 8.77 µM (inactive).

What about the GI50 (HL-60) of the same compound?
The GI50 was 4.51 µM (inactive).

And the GI50 (XF498)?
Its GI50 is 0.986 µM (active).

What about the GI50 (SK-MEL-2) of the same compound?
Its GI50 is 8.73 µM (inactive).

And the GI50 (SK-MEL-5)?
The GI50 was 11.8 µM (inactive).

What about the GI50 (MOLT-4) of the same compound?
Its GI50 is 3.61 µM (inactive).

And the GI50 (DMS-273)?
Its GI50 is 7.36 µM (inactive).

For `COc1cc(CCc2ccc(N)cc2)cc(OC)c1OC`, which GI50 (SNB-78) is on record?
Its GI50 is 39.1 µM (inactive).

And the GI50 (RPMI-8226)?
The GI50 was 64.6 µM (inactive).

What about the GI50 (IGROV-1) of the same compound?
Its GI50 is > 86.9 µM (inactive).

What about the GI50 (SN12C) of the same compound?
The GI50 was > 54.8 µM (inactive).

And the GI50 (COLO 205)?
Its GI50 is 18.9 µM (inactive).

And the GI50 (SW-620)?
The GI50 was 45.5 µM (inactive).

What about the GI50 (DMS-114) of the same compound?
Its GI50 is 34.3 µM (inactive).

What about the GI50 (CAKI-1) of the same compound?
Its GI50 is 67.8 µM (inactive).

And the GI50 (ACHN)?
The GI50 was > 100 µM (inactive).

And the GI50 (HCT-116)?
The GI50 was 50.9 µM (inactive).

What about the GI50 (SF-539) of the same compound?
Its GI50 is 26.1 µM (inactive).

And the GI50 (U-251)?
The GI50 was > 53.2 µM (inactive).

What about the GI50 (UO-31) of the same compound?
Its GI50 is > 45.3 µM (inactive).

What about the GI50 (OVCAR-5) of the same compound?
Its GI50 is > 100 µM (inactive).

What about the GI50 (HT-29) of the same compound?
Its GI50 is 41.5 µM (inactive).

And the GI50 (NCI-H226)?
Its GI50 is > 76.2 µM (inactive).

What about the GI50 (LOX IMVI) of the same compound?
The GI50 was 61 µM (inactive).

What about the GI50 (HCT-15) of the same compound?
Its GI50 is 43.4 µM.

What about the GI50 (A498) of the same compound?
The GI50 was 56.1 µM (inactive).

And the GI50 (SF-295)?
Its GI50 is 12.2 µM (inactive).

And the GI50 (UACC-257)?
The GI50 was > 94.4 µM (inactive).

What about the GI50 (HOP-62) of the same compound?
Its GI50 is > 42.7 µM (inactive).

What about the GI50 (SF-268) of the same compound?
Its GI50 is > 69.3 µM (inactive).

And the GI50 (M14)?
Its GI50 is 54.6 µM (inactive).

And the GI50 (HOP-18)?
The GI50 was > 71 µM (inactive).

What about the GI50 (A549) of the same compound?
Its GI50 is 51.6 µM (inactive).

What about the GI50 (SK-MEL-28) of the same compound?
The GI50 was 46 µM (inactive).

And the GI50 (SK-OV-3)?
The GI50 was > 91.4 µM (inactive).

And the GI50 (LXFL 529)?
Its GI50 is 59 µM (inactive).

What about the GI50 (786-0) of the same compound?
The GI50 was > 92.7 µM (inactive).

What about the GI50 (KM-20L2) of the same compound?
Its GI50 is 44.2 µM (inactive).

What about the GI50 (OVCAR-3) of the same compound?
Its GI50 is 41.1 µM (inactive).

What about the GI50 (TK-10) of the same compound?
The GI50 was > 74.3 µM (inactive).

What about the GI50 (K562) of the same compound?
The GI50 was 46.1 µM (inactive).

And the GI50 (NCI-H460)?
Its GI50 is 55.1 µM (inactive).

And the GI50 (CCRF-CEM)?
The GI50 was 49.4 µM (inactive).

And the GI50 (NCI-H23)?
The GI50 was 92.3 µM (inactive).

And the GI50 (OVCAR-8)?
The GI50 was > 75.9 µM (inactive).

What about the GI50 (RXF 393) of the same compound?
Its GI50 is 50.9 µM (inactive).

What about the GI50 (HCC 2998) of the same compound?
Its GI50 is > 47.8 µM (inactive).

What about the GI50 (RXF 631) of the same compound?
Its GI50 is > 58.1 µM (inactive).

What about the GI50 (DLD-1) of the same compound?
The GI50 was > 100 µM (inactive).

What about the GI50 (KM12) of the same compound?
The GI50 was 18.7 µM (inactive).

What about the GI50 (M19-MEL) of the same compound?
The GI50 was 55.8 µM (inactive).

And the GI50 (Malme-3M)?
Its GI50 is 28.2 µM (inactive).

What about the GI50 (NCI-H522) of the same compound?
The GI50 was 31.5 µM (inactive).

What about the GI50 (UACC-62) of the same compound?
Its GI50 is 38.7 µM (inactive).

And the GI50 (SNB-75)?
The GI50 was > 56 µM (inactive).

And the GI50 (HOP-92)?
Its GI50 is 35.4 µM (inactive).

And the GI50 (SNB-19)?
The GI50 was > 100 µM (inactive).

And the GI50 (EKVX)?
Its GI50 is > 66.5 µM (inactive).

What about the GI50 (OVCAR-4) of the same compound?
The GI50 was 63.5 µM (inactive).

What about the GI50 (HL-60) of the same compound?
Its GI50 is > 48 µM (inactive).

And the GI50 (XF498)?
Its GI50 is 64.6 µM (inactive).

And the GI50 (SK-MEL-2)?
Its GI50 is 27.8 µM (inactive).

And the GI50 (SK-MEL-5)?
The GI50 was 29.4 µM (inactive).

And the GI50 (MOLT-4)?
The GI50 was 36.9 µM (inactive).

What about the GI50 (DMS-273) of the same compound?
The GI50 was 37.9 µM (inactive).
